Measured values reported in patent US20230277490A1, “GLUTAMINE AS AN ANTICANCER THERAPY IN SOLID TUMORS” (CEDARS-SINAI MEDICAL CENTER, priority 2020, published 2023).

Tests used:
[1] = system: Pancreatic cancer cells (MIAPaCa human cell line); test: Relative cell number / gemcitabine dose response with glutamine; format: cell-based; conditions: for IC50: Homo sapiens, MIAPaCa cells
[2] = system: pancreatic cancer cells; test: Basal metabolic rate and mitochondrial proton leakage of pancreatic cancer cells; format: cell-based, human
[3] = system: pancreatic cancer cells; test: Metabolomic mass spectrometric analysis of metabolite levels; format: cell-based, human
Description: We tested how elevated glutamine affects gemcitabine efficacy. […] We next tested the metabolic impact of super-physiologic glutamine concentration (40 mM) on the gemcitabine response (0.5 μM) of pancreatic cancer cells through standard metabolomic mass spectrometric analysis. The heat map in FIG. 3 illustrates the differential metabolite accumulation with glutamine and gemcitabine treatment, as single agent and in combination. There were a number of metabolic changes that were only observed with the combination treatment. […] Importantly, high glutamine administration would reduce the concentration of gemcitabine required to cause significant cancer cell death.

[4] = system: Mia PaCa-2 cells; test: Antitumor efficacy of L-Gln supplementation and CB-839 in vitro (FIG. 7); format: cell-based; conditions: for antitumor efficacy: single agent, Mia PaCa-2 cells in vitro
[5] = system: Mia PaCa-2 cells; test: Intracellular sodium by sodium green fluorescence intensity; format: cell-based; conditions: MIA PaCa-2 cells in vitro; L-Gln 40 mM, D-Gln high dose
[6] = system: PDAC cells; format: cell-based
Text: As L-Gln supplementation enhances the efficacy of chemotherapy, we tested whether L-Gln can lower the effective dose of gemcitabine.

[7] = system: PDAC cells; test: Glutamine supplementation with increasing concentrations of gemcitabine in PDAC cells; format: cell-based
Text: The ability of L-Gln supplementation to […] intracellular nucleotide stores makes it an attractive agent to pair with gemcitabine, a standard chemotherapy used in the treatment of PDAC patients whose activity is also based on its ability to inhibit DNA synthesis.
We show herein that glutamine deprivation through glutaminase inhibition increases cancer cell survival and potentiates resistance to gemcitabine in PDAC cells.

[8] = system: PDAC mouse models; conditions: in vivo; cited from earlier work
[9] = system: pancreatic cancer cells; test: DNA damage accumulation; format: cell-based, human; conditions: combination of glutamine and gemcitabine over either single agent
[10] = at 23° C.; cited from earlier work
[11] = enteral glutamine, 47 prospective trials, over 1600 adult patients; cited from earlier work
[12] = system: melanoma tumor; conditions: dietary supplementation; cited from earlier work
[13] = system: PDAC cells; test: PDAC cell growth / cell death in vitro; format: cell-based; conditions: D-Gln high dose
[14] = combination 40 mM glutamine and 0.5 μM gemcitabine

Nc1ccn([C@@H]2O[C@H](CO)[C@@H](O)C2(F)F)c(=O)n1 [gemcitabine]
IC50 ([1]; MIA PaCa-2, in the presence of 2 mM glutamine (physiologic concentration)): 666 nM
IC50 ([1]; MIA PaCa-2, with 40 mM glutamine (super-physiologic concentration)): 179 nM
basal metabolic rate ([2]; gemcitabine alone): elevated
mitochondrial proton leakage ([2]; gemcitabine alone): induced

NC(=O)CC[C@H](N)C(=O)O [L-Gln, L-glutamine]
TCA cycle metabolite levels ([3]; 40 mM L-Gln): did not affect the majority of TCA cycle metabolites
intracellular essential and conditionally amino acids ([3]; 40 mM compared to 2 mM L-Gln, PDAC cells in vitro): significantly depleted
intracellular nucleotide stores ([3]; 40 mM compared to control 2 mM L-Gln): significantly depleted
antitumor efficacy over time ([4]; 40 mM L-Gln compared to control 2 mM L-Gln): consistently better with antitumor efficacy
antitumor activity under glutaminase inhibition ([4]; L-Gln together with CB-839): occurred independently of glutaminase inhibition with CB-839
antitumor efficacy [4]: greater antitumor activity
intracellular sodium [5]: increases intracellular sodium levels
colony formation with 5-FU [6]: as effective or even more effective than 5-FU at 0.1 uM
colony formation with gemcitabine ([6]; 20 mM L-Gln plus gemcitabine): can enhance the efficacy gemcitabine
colony formation with paclitaxel ([6]; high-dose L-Gln plus paclitaxel): enhances the efficacy of paclitaxel
antitumor effects of gemcitabine ([7]; L-Gln 40 mM compared to 2 mM, several PDAC cell lines): consistently enhanced the antitumor effects of gemcitabine

O=C(Cc1cccc(OC(F)(F)F)c1)Nc1ccc(CCCCc2nnc(NC(=O)Cc3ccccn3)s2)nn1 [CB-839]
antitumor efficacy [4]: some antitumor efficacy
efficacy in PDAC mouse models [8]: failed

NC(=O)CC[C@H](N)C(=O)O [glutamine]
cell death ([1]; combination of elevated concentrations of glutamine and gemcitabine compared to either alone): dramatic increase in cell death
mitochondrial proton leakage induced by gemcitabine ([2]; additional glutamine treatment): reduced
basal metabolic rate ([2]; combination of 40 mM glutamine and 0.5 μM gemcitabine): further elevated still
free nucleotides [3, 14]: accumulation of free nucleotides
vitamin C and SAM levels [3, 14]: accumulation of vitamin C and S-adenosine methionine (SAM)
PDAC cell death with increasing concentrations of gemcitabine ([7]; glutamine supplementation): enhancement of PDAC cell death
cancer cell viability with increasing concentrations of gemcitabine ([7]; glutamine supplementation in the face of glutaminase inhibition): decreased cancer cell viability
sensitivity to gemcitabine ([7]; glutamine supplementation, even in the face of glutaminase inhibition): enhances sensitivity to gemcitabine
DNA damage [9]: greater DNA damage accumulation
solubility [10]: 3.6%
tolerability [11]: well-tolerated
melanoma tumor growth [12]: can inhibit melanoma tumor growth

C[C@@H]1O[C@@H](O[C@H]2C[C@@H](O)[C@]3(CO)[C@H]4[C@H](O)C[C@]5(C)[C@@H](C6=CC(=O)OC6)CC[C@]5(O)[C@@H]4CC[C@]3(O)C2)[C@H](O)[C@H](O)[C@H]1O [Ouabain]
intracellular sodium [5]: leads to build up of intracellular sodium
PDAC cell growth / cell death [13]: greater PDAC cell death
